# Patent US9974888B2, “Formulations for drug-coated medical devices” (priority 2010, dated 2018)
# Experiment: Dye loss from coated membranes type P in stirred saline
# Type: physicochemical
# Conditions: water-soluble dye, stirred saline at 37° C., 5 min
# Source text: Membranes type P were coated either with a water-soluble dye without resveratrol or combined with resveratrol.
smiles,measurement,value
"Oc1ccc(C=Cc2cc(O)cc(O)c2)cc1 [Resveratrol, resveratrol]",adhesion of the dye,significantly improved the adhesion of the dye
